Reference: ChEMBL document CHEMBL5291721, “A preclinical secondary pharmacology resource illuminates target-adverse drug reaction associations of marketed drugs” (Nat Commun, 2023)

Columns and labels:
[1] = biological target: T1, Mu-type opioid receptor (Homo sapiens, UniProt P35372); assay: biochemical; assay type: functional
[2] = biological target: T2, Alpha-2A adrenergic receptor (Homo sapiens, UniProt P08913); assay type: functional, cell-based
T2 sequence (P08913 whole entry): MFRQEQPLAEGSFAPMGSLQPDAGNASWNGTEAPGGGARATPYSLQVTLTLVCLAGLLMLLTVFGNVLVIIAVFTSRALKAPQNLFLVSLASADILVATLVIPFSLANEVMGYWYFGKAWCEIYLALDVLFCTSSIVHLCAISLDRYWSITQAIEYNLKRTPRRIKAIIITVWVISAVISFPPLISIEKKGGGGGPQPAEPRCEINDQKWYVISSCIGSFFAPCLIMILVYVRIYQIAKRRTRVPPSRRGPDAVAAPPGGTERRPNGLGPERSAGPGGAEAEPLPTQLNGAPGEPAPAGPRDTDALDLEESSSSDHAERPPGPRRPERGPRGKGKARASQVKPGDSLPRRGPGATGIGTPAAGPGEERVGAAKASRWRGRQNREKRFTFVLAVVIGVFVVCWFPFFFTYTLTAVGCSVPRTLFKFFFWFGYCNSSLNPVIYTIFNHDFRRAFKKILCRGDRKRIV

[3] = biological target: T3, Amine oxidase [flavin-containing] A (Homo sapiens, UniProt P21397); assay type: functional
T3 sequence (P21397 whole entry): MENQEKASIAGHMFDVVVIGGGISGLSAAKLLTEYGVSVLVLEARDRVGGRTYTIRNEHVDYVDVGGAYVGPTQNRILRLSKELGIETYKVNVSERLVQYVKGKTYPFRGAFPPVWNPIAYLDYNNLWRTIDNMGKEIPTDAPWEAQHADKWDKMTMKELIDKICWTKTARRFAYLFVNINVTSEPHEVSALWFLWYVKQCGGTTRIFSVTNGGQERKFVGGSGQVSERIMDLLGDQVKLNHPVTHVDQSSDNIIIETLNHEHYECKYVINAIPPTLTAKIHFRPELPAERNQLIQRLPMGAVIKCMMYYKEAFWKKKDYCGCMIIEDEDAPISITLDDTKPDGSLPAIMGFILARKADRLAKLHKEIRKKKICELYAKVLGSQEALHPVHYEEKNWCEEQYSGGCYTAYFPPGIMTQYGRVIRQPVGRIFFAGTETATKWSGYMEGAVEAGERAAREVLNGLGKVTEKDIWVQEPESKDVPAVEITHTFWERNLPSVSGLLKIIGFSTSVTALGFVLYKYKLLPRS

[4] = biological target: Kappa-type opioid receptor (Homo sapiens, UniProt P41145)
[5] = biological target: 5-hydroxytryptamine receptor 2A (Homo sapiens, UniProt P28223); assay type: functional, cell-based
[6] = biological target: Glutamate receptor ionotropic, NMDA 1 (Rattus norvegicus, UniProt P35439)
[7] = biological target: T4, D(3) dopamine receptor (Homo sapiens, UniProt P35462)
[8] = biological target: Muscarinic acetylcholine receptor M3 (Homo sapiens, UniProt P20309)
[9] = biological target: 5-hydroxytryptamine receptor 2B (Homo sapiens, UniProt P41595); assay type: functional, cell-based
[10] = biological target: Gamma-aminobutyric acid receptor subunit alpha-1/alpha-2/beta-2/gamma-2 (Homo sapiens, UniProt P14867+P18507+P47869+P47870); assay type: protein-complex assay
[11] = biological target: 3',5'-cyclic-AMP phosphodiesterase 4A (Homo sapiens, UniProt P27815); assay type: functional
[12] = biological target: T3, Amine oxidase [flavin-containing] A; assay type: functional; remark: listed apart in the source
[13] = biological target: D(1A) dopamine receptor (Homo sapiens, UniProt P21728)
[14] = biological target: T4, D(3) dopamine receptor; remark: listed apart in the source
[15] = biological target: T5, Thromboxane A2 receptor (Homo sapiens, UniProt P21731); assay type: functional, cell-based
T5 sequence (P21731 whole entry): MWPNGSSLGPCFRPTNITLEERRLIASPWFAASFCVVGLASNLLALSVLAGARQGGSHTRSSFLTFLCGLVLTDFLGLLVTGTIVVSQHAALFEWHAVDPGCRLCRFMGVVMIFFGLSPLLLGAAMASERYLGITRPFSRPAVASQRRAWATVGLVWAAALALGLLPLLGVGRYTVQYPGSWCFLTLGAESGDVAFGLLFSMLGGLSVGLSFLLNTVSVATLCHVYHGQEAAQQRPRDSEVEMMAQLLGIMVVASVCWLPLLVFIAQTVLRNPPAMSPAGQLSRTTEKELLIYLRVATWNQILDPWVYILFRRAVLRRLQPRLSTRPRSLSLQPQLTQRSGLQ

[16] = biological target: T5, Thromboxane A2 receptor; assay type: functional, cell-based; remark: listed apart in the source
[17] = biological target: Prostaglandin G/H synthase 1 (Homo sapiens, UniProt P23219); assay type: functional
[18] = biological target: T1, Mu-type opioid receptor
[19] = biological target: T6, Muscarinic acetylcholine receptor M2 (Homo sapiens, UniProt P08172)
T6 sequence (P08172 whole entry): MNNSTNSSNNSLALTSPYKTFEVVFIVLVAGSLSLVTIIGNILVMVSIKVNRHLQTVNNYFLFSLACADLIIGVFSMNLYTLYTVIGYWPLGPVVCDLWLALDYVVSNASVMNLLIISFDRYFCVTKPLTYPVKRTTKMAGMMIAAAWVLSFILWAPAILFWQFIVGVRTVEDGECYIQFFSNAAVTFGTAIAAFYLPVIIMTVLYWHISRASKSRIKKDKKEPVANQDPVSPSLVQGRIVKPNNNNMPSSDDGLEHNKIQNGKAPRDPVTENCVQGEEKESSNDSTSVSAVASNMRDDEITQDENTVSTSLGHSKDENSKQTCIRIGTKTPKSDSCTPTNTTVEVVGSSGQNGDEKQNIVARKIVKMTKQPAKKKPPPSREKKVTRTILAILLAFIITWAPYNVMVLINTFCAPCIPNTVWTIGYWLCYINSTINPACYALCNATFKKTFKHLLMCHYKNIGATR

[20] = biological target: Sodium-dependent dopamine transporter (Homo sapiens, UniProt Q01959)

Measured: AC50
Also: assay procedure not described here.

T4 sequence (P35462 whole entry): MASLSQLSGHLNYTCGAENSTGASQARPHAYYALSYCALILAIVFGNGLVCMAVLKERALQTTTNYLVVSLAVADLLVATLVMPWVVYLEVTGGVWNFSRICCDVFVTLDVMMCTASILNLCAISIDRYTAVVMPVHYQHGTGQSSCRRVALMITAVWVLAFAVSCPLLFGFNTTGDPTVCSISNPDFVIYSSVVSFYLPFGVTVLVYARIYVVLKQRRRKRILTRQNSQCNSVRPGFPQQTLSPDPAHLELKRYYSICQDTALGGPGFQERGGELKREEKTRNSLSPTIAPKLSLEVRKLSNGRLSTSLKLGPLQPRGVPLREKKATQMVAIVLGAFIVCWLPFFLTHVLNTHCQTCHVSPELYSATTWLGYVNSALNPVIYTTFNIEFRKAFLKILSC
T1 sequence (P35372 whole entry): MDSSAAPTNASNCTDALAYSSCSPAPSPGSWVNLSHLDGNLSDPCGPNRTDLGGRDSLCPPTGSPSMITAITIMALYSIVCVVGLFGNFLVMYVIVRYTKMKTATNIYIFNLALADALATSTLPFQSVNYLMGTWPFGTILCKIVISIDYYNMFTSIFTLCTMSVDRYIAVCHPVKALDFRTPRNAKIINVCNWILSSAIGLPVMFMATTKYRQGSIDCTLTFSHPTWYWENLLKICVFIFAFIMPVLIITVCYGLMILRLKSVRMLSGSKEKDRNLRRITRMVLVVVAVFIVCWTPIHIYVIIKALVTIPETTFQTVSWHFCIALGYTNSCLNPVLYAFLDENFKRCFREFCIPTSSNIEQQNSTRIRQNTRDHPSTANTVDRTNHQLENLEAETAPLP
Sequence of Kappa-type opioid receptor (P41145 whole entry): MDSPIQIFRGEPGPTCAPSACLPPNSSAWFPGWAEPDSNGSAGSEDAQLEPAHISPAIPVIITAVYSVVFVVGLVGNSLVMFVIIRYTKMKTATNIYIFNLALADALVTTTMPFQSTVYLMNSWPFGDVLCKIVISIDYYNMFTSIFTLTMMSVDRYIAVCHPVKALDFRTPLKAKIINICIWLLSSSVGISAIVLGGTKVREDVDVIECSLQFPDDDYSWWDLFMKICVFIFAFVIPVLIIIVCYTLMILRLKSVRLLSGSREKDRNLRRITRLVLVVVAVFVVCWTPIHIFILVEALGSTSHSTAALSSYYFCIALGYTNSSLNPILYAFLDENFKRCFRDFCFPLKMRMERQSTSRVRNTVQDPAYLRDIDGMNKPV
Sequence of Gamma-aminobutyric acid receptor subunit alpha-1/alpha-2/beta-2/gamma-2 (P14867 whole entry): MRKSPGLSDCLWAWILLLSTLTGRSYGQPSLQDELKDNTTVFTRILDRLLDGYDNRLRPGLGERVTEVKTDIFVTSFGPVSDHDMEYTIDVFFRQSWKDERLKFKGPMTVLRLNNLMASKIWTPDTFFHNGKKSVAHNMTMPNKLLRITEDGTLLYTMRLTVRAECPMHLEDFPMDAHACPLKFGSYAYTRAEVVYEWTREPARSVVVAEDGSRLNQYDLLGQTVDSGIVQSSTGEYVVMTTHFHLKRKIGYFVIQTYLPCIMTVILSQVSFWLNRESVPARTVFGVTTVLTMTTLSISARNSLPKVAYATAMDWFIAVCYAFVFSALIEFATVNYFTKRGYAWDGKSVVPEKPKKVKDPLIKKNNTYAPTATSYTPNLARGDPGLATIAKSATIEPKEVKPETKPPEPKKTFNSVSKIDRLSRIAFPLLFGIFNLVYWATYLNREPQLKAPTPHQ
Sequence of Gamma-aminobutyric acid receptor subunit alpha-1/alpha-2/beta-2/gamma-2 (P47870 whole entry): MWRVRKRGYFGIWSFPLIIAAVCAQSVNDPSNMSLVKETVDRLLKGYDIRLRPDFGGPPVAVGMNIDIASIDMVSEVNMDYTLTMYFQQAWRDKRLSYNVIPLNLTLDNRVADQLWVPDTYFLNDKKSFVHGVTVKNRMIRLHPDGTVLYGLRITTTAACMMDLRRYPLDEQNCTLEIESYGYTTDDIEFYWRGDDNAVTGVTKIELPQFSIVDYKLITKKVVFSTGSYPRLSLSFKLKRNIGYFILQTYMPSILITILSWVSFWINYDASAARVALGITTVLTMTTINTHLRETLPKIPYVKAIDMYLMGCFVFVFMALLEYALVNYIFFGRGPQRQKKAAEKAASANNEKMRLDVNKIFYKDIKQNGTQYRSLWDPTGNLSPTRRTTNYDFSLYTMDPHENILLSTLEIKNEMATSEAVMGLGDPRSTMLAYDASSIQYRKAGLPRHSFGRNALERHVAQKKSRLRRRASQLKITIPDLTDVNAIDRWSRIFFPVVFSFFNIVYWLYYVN
Sequence of Gamma-aminobutyric acid receptor subunit alpha-1/alpha-2/beta-2/gamma-2 (P18507 whole entry): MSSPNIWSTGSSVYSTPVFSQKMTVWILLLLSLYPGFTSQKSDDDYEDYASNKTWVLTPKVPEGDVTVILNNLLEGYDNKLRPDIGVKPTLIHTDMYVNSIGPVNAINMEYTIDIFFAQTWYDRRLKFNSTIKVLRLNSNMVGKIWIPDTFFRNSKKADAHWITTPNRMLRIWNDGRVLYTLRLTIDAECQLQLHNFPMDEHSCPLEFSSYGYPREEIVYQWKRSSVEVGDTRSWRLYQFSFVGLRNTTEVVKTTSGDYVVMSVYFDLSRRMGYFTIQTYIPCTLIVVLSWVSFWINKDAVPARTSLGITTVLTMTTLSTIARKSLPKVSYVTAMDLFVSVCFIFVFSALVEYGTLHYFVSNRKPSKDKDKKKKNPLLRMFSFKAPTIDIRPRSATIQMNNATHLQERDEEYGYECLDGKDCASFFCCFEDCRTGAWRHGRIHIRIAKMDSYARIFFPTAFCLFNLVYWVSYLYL
Sequence of Gamma-aminobutyric acid receptor subunit alpha-1/alpha-2/beta-2/gamma-2 (P47869 whole entry): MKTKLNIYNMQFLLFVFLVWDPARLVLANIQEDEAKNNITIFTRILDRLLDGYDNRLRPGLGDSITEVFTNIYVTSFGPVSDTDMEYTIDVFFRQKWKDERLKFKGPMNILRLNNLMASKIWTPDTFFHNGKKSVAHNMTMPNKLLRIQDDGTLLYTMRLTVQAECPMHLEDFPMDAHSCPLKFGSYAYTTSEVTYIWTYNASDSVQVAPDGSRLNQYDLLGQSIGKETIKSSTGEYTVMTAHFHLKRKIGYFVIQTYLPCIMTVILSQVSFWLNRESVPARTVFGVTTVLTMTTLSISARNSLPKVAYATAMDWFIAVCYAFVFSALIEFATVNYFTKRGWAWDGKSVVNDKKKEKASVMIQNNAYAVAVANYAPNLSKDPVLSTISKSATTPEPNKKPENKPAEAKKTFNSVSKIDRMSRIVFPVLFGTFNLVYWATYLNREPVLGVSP
Sequence of Prostaglandin G/H synthase 1 (P23219 whole entry): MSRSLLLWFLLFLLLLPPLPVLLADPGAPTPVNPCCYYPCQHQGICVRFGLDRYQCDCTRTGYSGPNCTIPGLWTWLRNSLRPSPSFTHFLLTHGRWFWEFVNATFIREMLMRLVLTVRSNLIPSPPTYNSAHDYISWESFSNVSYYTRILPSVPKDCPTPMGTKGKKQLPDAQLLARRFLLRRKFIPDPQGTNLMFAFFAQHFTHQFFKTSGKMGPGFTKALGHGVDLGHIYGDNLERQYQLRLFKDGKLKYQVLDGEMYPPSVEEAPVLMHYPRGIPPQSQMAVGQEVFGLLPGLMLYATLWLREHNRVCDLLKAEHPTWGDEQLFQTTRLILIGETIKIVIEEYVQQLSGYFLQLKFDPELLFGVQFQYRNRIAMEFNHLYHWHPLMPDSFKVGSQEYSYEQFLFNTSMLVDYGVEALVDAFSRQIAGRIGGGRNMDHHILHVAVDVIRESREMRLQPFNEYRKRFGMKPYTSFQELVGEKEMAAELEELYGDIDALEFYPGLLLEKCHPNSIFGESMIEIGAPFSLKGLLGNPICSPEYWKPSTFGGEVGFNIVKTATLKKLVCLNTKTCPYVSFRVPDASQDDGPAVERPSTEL
Sequence of 5-hydroxytryptamine receptor 2A (P28223 whole entry): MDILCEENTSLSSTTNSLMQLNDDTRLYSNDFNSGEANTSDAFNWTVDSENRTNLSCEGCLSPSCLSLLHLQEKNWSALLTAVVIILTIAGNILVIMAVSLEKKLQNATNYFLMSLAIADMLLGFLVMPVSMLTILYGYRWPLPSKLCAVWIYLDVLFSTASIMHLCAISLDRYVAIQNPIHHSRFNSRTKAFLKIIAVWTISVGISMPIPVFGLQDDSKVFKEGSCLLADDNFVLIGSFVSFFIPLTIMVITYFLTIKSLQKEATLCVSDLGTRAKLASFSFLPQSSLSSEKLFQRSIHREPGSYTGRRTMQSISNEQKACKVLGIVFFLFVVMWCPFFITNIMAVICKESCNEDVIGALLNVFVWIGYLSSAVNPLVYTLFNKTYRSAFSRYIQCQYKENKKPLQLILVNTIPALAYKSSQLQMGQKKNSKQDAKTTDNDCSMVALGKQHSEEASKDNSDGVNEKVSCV
Sequence of Muscarinic acetylcholine receptor M3 (P20309 whole entry): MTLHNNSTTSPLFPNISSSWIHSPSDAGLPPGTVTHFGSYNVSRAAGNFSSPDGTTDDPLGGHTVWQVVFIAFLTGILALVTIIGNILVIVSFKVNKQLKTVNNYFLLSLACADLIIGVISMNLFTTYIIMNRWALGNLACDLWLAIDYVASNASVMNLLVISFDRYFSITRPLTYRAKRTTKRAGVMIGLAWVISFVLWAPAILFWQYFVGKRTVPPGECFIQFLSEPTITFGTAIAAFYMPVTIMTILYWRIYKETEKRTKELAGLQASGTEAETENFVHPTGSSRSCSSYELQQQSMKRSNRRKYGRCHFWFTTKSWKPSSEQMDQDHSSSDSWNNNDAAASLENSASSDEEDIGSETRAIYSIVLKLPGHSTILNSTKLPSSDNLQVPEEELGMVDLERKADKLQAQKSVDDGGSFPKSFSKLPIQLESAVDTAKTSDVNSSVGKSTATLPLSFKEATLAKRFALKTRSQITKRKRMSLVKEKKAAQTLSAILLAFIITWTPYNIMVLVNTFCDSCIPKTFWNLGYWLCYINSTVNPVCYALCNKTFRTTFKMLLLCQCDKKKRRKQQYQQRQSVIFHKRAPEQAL

CCN(CC)C(=O)C1(c2ccccc2)CC1CN (stereo not given)
> 30 µM: [1] | [2] | [3] | [4] | [5] | [6] | [7] | [8] | [9]

CN(C)C(=O)Oc1cccc([N+](C)(C)C)c1 [NEOSTIGMINE]
> 30 µM: [10] | [11] | [12] | [13] | [14] | [15] | [16] | [17] | [18] | [19] | [20]
